Target: FXa (Homo sapiens, UniProt P00742)
Assay: Inhibition of factor Xa (Table 1, Pharmacological Data)
Format: biochemical

FXa, sequence (P00742 235-488 limits assumed): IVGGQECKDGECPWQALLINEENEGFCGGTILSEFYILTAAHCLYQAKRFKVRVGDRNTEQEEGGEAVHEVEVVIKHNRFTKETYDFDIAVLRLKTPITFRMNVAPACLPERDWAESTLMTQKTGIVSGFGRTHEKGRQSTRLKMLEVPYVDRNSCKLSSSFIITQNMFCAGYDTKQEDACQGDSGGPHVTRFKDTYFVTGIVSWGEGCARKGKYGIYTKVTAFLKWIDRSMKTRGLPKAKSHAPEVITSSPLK
FXa, sequence (P00742 41-179 limits assumed): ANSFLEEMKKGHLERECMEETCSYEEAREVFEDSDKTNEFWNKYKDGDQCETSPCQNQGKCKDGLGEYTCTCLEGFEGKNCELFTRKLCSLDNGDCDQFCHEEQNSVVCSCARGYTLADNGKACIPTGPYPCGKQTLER

Structure (SMILES)	IC50 [nM]
C#Cc1ccc(NC(=O)N2CCCN2C(=O)Nc2ccc(N3CCOCC3=O)c(Cl)c2)cc1 [Compound A1, 1-N-[(4-Ethynylphenyl)]-2-N-{[3-chloro-4-(3-oxomorpholin-4-yl)phenyl]}-pyrazolidine-1,2-dicarboxamide]	75
O=C1COCCN1c1ccc(NC(=O)N2CCCN2C(=O)Nc2ccc(Cl)cc2)cc1Cl [Compound A2, 1-N-[(4-chlorophenyl)]-2-N-{[3-chloro-4-(3-oxomorpholin-4-yl)phenyl]}-pyrazolidine-1,2-dicarboxamide]	120
O=C(Nc1ccc(Br)cc1)N1CCCN1C(=O)Nc1ccc(-n2ccccc2=O)cc1 [Compound A3, 1-N-[(4-bromophenyl)]-2-N-{[4-(2-oxo-2H-pyridin-1-yl)phenyl]}pyrazolidine-1,2-dicarboxamide]	55
